The subject of assay [1] is PIKFYVE TDP-43 yeast strain. The experiment in a line: Propidium iodide viability assay, PIKFYVE TDP-43 yeast strain. It counts as cell-based. The conditions noted are these: for IC50: Saccharomyces cerevisiae, PIKFYVE TDP-43 yeast strain, values plotted in FIG. 7; for PIKfyve TDP-43 (active/inactive): PIKFYVE TDP-43 yeast model. The procedure: (§1) Generation of TDP-43 yeast model expressing human PIKfyve. Human PIKFYVE (“entry clone”) was cloned into […] (“destination vector”) according to standard Gateway cloning protocols (Invitrogen, Life Technologies). The resulting pAG416GPD-PIKFYVE plasmids were amplified in E. coli and plasmid identity confirmed by restriction digest and Sanger sequencing. […]+) (FIG. 2). Transformed yeast were plated on solid agar plates with complete synthetic media lacking uracil (CSM-ura) and containing 2% glucose. Individual colonies harboring the control or PIKFYVE TDP-43 plasmids were recovered. A plasmid containing wild-type TDP-43 under the transcriptional control of the GAL1 promoter and containing the […] as a selectable marker was transformed into the […]-PIKFYVE yeast strain (FIG. 1). Transformed yeast were plated on CSM-ura containing 2% glucose and 200 μg/mL G418 after overnight recovery in media lacking antibiotic. Multiple independent isolates were further evaluated for cytotoxicity and TDP-43 expression levels. Viability Assay. A control yeast strain with the wild-type yeast FAB1 gene and TDP-43 (“FAB1 TDP-43”, carries empty pAG416 plasmid), and the “PIKFYVE TDP-43” yeast strain, were assessed for toxicity using a propidium iodide viability assay. Both yeast strains were transferred from solid CSM-ura/2% glucose agar plates into 3 mL of liquid CSM-ura/2% glucose media for 6-8 hours at 30° C. with aeration. Yeast cultures were then diluted to an optical density at 600 nm wavelength (OD600) of 0.005 in 3 mL of CSM-ura/2% raffinose and grown overnight at 30° C. with aeration to an OD600 of 0.3-0.8. Log-phase overnight cultures were diluted to OD600 of 0.005 in CSM-ura containing either 2% raffinose or galactose and 150 μL dispensed into each well of a flat bottom 96-well plates. Compounds formulated in 100% dimethyl sulfoxide (DMSO) were serially diluted in DMSO and 1.5 μL diluted compound transferred to the 96-well plates using a multichannel pipet. Wells containing DMSO alone were also evaluated as controls for compound effects. Tested concentrations ranged from 15 μM to 0.11 μM. Cultures were immediately mixed to ensure compound distribution and covered plates incubated at 30° C. for 24 hours in a stationary, humified incubator. Upon the completion of incubation, cultures were assayed for viability using propidium iodide (PI) to stain for dead/dying cells. A working solution of PI was made where, for each plate, 1 μL of 10 mM PI was added to 10 mL of CSM-ura (raffinose or galactose). […] The overnight 96-well assay plate was then mixed with a multichannel pipet and 50 μL transferred to the PI-containing plate. This plate was then incubated for 30 minutes at 30° C. in the dark. A benchtop flow cytometer (Miltenyi MACSquant) was then used to assess red fluorescence (B2 channel), forward scatter, and side scatter (with following settings: gentle mix, high flow rate, fast measurement, 10,000 events). Intensity histograms were then gated for “PI-positive” or “PI-negative” using the raffinose and galactose cultures treated with DMSO as controls. The DMSO controls for raffinose or galactose-containing cultures were used to determine the window of increased cell death and this difference set to 100. All compounds were similarly gated and then compared to this maximal window to establish the percent reduction in PI-positive cells.

The target in assay [2] is full-length human PIKFYVE (Homo sapiens (Human), UniProt Q9Y2I7, L932S/Q1183K/Q995L/S1033A/S696N/T998S). The experiment in a line: PIKfyve biochemical assay (ADP-Glo Kinase assay, Carna Biosciences). As to conditions: class symbols. In short, it runs like this:
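N-terminal GST-fused full-length PIKFYVE from baculovirus, incubated with compound, substrate and ATP in 50 mM MOPS, 1 mM DTT, pH7.2 for 1 hour at room temperature. ADP formed detected by ADP-Glo luminescence; IC50 from four-parameter logistic fit of % inhibition.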
(In general: ADP-Glo first removes unused ATP, then detects ADP through luciferase.)

The subject of a further assay is U2OS cells. The experiment in a line: EEA1 assay (endosomal vesicle enlargement as surrogate readout of PIKFyve inhibition). It counts as cell-based. As to conditions: 3 hours of treatment. The procedure:
EEA1 Assay. Genetic or pharmacological disruption of PIKfyve activity results in enlargement of endosomal vesicles. This enlargement was utilized as a surrogate readout of PIKFyve inhibition for routine triage of PIKfyve inhibitors. U2OS cells grown in 96-well assay plates were treated with compound diluted in DMEM media containing 10% fetal bovine serum. After 3 hours of treatment, cells were fixed with paraformaldehyde, permeabilized with 0.2% Triton-X in phosphate buffered saline and stained against EEA1. During the secondary antibody staining, cells were also stained with CellMask DeepRed and Hoechst to detect cytoplasms and nuclei respectively. Endosomal structures were visualized using a high content imager at 40× magnification. Images were analyzed using a linear classifier algorithm integrating EEA1 spot size, intensity and texture trained on images of cells treated with the potent reference compound APY0201. Compound activity was calculated by subtracting the DMSO signal and calculating percentage activity relative to maximal APY0201 activity. IC50s were then calculated from concentration vs. % inhibition data by logistic regression.

A further assay deals with FAB1 TDP-43 yeast strain. Kind of assay: Propidium iodide viability assay, FAB1 TDP-43 control yeast strain. The format is cell-based. As to conditions: for FAB1 TDP-43 (active/inactive): FAB1 TDP-43 yeast model. The procedure:
as §1

Structures are written as SMILES.

Sequence of full-length human PIKFYVE (Q9Y2I7 whole entry S696N/L932S/Q995L/T998S/S1033A/Q1183K, the tested form may be a part): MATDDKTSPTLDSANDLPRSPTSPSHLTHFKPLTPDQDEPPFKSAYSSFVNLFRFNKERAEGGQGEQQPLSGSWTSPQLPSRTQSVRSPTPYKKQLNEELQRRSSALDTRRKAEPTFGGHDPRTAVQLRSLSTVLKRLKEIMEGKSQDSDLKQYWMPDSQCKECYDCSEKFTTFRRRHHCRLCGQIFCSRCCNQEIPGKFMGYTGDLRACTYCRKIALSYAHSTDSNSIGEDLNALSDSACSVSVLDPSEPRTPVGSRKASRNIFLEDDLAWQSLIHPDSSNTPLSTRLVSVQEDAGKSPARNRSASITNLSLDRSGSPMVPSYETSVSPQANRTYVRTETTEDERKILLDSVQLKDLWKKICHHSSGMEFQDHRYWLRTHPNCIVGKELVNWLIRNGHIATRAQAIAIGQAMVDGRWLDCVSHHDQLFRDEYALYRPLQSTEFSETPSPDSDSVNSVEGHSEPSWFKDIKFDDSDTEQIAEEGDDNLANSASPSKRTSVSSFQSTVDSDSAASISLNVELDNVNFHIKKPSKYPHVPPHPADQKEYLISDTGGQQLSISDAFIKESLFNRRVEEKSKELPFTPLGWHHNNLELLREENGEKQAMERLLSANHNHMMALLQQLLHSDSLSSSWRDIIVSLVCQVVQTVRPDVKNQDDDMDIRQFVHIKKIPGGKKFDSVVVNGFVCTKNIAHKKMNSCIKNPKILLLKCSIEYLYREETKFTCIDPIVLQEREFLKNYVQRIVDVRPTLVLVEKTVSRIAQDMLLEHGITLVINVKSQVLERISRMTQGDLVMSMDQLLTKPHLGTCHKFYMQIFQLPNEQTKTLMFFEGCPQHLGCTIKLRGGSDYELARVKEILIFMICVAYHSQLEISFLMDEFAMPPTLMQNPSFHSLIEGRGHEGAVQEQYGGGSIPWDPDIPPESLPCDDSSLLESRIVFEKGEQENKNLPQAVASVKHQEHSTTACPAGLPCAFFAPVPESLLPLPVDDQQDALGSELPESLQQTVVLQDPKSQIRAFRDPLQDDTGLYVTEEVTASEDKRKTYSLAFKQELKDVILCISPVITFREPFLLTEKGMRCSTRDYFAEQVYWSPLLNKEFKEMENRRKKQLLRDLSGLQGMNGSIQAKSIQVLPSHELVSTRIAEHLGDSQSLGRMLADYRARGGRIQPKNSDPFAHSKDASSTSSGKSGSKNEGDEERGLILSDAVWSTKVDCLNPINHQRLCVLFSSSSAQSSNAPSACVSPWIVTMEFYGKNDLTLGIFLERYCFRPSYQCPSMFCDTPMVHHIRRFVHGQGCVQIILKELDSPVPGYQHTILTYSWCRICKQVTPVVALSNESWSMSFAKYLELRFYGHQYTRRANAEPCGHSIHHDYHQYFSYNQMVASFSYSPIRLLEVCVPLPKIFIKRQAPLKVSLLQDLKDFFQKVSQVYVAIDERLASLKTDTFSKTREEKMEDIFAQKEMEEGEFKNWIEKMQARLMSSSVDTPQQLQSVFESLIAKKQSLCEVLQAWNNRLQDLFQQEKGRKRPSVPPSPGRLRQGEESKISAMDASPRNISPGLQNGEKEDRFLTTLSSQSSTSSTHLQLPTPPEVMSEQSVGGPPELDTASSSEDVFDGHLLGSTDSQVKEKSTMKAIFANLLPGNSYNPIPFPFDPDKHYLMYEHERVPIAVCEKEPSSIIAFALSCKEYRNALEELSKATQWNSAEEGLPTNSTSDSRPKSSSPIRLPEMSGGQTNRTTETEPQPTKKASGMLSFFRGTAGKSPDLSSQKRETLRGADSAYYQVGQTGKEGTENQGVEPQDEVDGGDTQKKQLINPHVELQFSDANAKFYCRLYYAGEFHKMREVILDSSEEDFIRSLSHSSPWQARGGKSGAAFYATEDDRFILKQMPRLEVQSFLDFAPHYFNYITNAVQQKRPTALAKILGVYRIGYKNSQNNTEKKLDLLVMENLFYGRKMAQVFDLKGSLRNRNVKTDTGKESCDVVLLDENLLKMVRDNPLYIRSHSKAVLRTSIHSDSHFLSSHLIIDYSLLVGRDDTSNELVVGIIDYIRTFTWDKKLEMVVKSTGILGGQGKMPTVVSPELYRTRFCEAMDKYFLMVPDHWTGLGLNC

A word on the IC50: it is the concentration needed to halve the response being measured. A high value points to a need for much substance. The compound `Cc1cccc(/C=N/Nc2nc(N3CCOCC3)c3nc(-c4ccncc4)n(C)c3n2)c1` [drawing 343] had an IC50 in assay [1] of 4720 nM.
Same read-out and setting: next, `Fc1cccc(-c2ccnn2-c2nc(N3CCOCC3)c3ncccc3n2)c1`: 5750 nM.
On to `c1ccc(-c2nccc(-c3cc(N4CCOCC4)n4nc(C5CCCO5)cc4n3)n2)cc1` (stereo not drawn) [Compound 97, 4-(5-(2-phenylpyrimidin-4-yl)-2-(tetrahydrofuran-2-yl)pyrazolo[1,5-a]pyrimidin-7-yl)morpholine], for which the IC50 in assay [2] was in the range of 10 to 100 nM; with U2OS cells (Homo sapiens, class symbols) it was 1000 to 10000 nM.
Consider `Oc1cc(-c2ccccc2)nn1-c1cc(N2CCOCC2)n2nc(-c3ccncc3)nc2n1`, for which the 50% inhibitory concentration (IC50) in assay [1] is 693 nM.
In turn, `Cc1cccc(/C=N/Nc2nc(N3CCOCC3)c3ncccc3n2)c1` returned a 50% inhibitory concentration (IC50) in assay [1] of 8210 nM.
Consider `COc1nn(-c2cc(N3CCOCC3)n3nc(-c4ccncc4)cc3n2)cc1-c1ccccc1` [Compound 66, 4-(5-(3-methoxy-4-phenyl-1H-pyrazol-1-yl)-2-(pyridin-4-yl)pyrazolo[1,5-a]pyrimidin-7-yl)morpholine], for which the IC50 in assay [2] is more than 10000 nM; in the assay with U2OS cells (Homo sapiens, numeric values) it was more than 3000 nM.
For `Cc1cccc(-c2ccn(-c3cc(N4CCOCC4)n4nc(C5CCN(C)C(=O)C5)cc4n3)n2)c1` (stereo not drawn) [Compound 151, 1-methyl-4-(7-morpholino-5-(3-(m-tolyl)-1H-pyrazol-1-yl)pyrazolo[1,5-a]pyrimidin-2-yl)piperidin-2-one], in the assay on U2OS cells (Homo sapiens, class symbols), the IC50 is 1000 to 10000 nM.
`Oc1cc(C2CCOCC2)nn1-c1cc(N2CCOCC2)n2nc(-c3ccncc3)cc2n1` [drawing 345] had an IC50 in assay [1] of 9100 nM.
`Cc1cccc(-c2ccn(-c3cc(N4CCOCC4)n4nccc4n3)n2)c1` [Compound 78, 4-(5-(3-(m-tolyl)-1H-pyrazol-1-yl)pyrazolo[1,5-a]pyrimidin-7-yl)morpholine]: the IC50 with U2OS cells (Homo sapiens, class symbols) fell in the range of 1000 to 10000 nM.
On to `Cc1cccc(/C=N/Nc2cc(N3CC4CC3CO4)n3nc(-c4ccncc4)cc3n2)c1` (stereo not drawn) [drawing 328], for which, in assay [1], the “PIKfyve TDP-43 (active/inactive)” value was “Active”. The “FAB1 TDP-43 (active/inactive)” value in the assay with FAB1 TDP-43 yeast strain is “Inactive”.
Take `Cc1cccc(-c2ccn(-c3cc(N4CCOCC4)n4nc(-c5cccnc5)cc4n3)n2)c1` [Compound 79]: the IC50 in assay [2] was less than 10 nM; in the assay on U2OS cells (Homo sapiens, class symbols) it was 100 to 1000 nM.
Consider `COc1nn(-c2cc(N3CCOCC3)n3nc(C(O)CO)cc3n2)cc1-c1ccccc1` (stereo not drawn) [Compound 145, 1-(5-(3-methoxy-4-phenyl-1H-pyrazol-1-yl)-7-morpholinopyrazolo[1,5-a]pyrimidin-2-yl)ethane-1,2-diol], for which the IC50 in the assay with U2OS cells (Homo sapiens, class symbols) is 1000 to 10000 nM.
`c1ccc(-c2cccc(-c3cc(N4CCOCC4)n4nc(-c5ccncc5)cc4n3)n2)cc1` returned an IC50 in assay [1] of 230 nM.
As to `Cc1cccc(/C=N/Nc2cc(N3CCOCC3)n3nc(-c4ccncc4)cc3n2)c1` [drawing 327], the “PIKfyve TDP-43 (active/inactive)” value in assay [1] is recorded as “Active”. Besides, the “FAB1 TDP-43 (active/inactive)” value with FAB1 TDP-43 yeast strain is reported as “Inactive”.
In turn, `c1ccc(-c2ccnc(-c3cc(N4CCOCC4)nc(OCc4ccncc4)n3)n2)cc1` gave an IC50 in assay [1] of 1450 nM.
Take `Cc1cccc(/C=N/Nc2cc(N3CCOCC3)n3nc(-c4ccncc4)cc3n2)c1` [APYO201, reference compound]: the “population of propidium iodide-positive dead cells in PIKFYVE TDP-43” value in assay [1] (0.23 μM, FIG. 6) is “reduced the population of propidium iodide-positive dead cells”. Moreover, the “viable cells in FAB1 TDP-43” value in the assay on FAB1 TDP-43 yeast strain (across a range of compound concentrations (only 0.23 μM is shown), FIG. 5) was “no increase in viable cells”.
The compound `Cc1cccc(/C=N/Nc2cc(N3CCOCC3)nc(OCCc3ccc(CN)cc3)n2)c1` returned a concentration for half-maximal inhibition (IC50) in assay [1] of 1120 nM.
On to `CN(C)c1cc(N2CCOCC2)n2nc(-c3ccncc3)cc2n1`, for which the “PIKfyve TDP-43 (active/inactive)” value in assay [1] is “Inactive”. The “FAB1 TDP-43 (active/inactive)” value in the assay with FAB1 TDP-43 yeast strain is listed as “Inactive”.
Consider `N#Cc1cc(N2CCOCC2)n2nc(-c3ccncc3)cc2n1` [drawing 332], for which the “PIKfyve TDP-43 (active/inactive)” value in assay [1] is given as “Inactive”. Moreover, the “FAB1 TDP-43 (active/inactive)” value in the assay with FAB1 TDP-43 yeast strain is “Inactive”.
With `Cn1c(-c2ccncc2)nc2c(N3CCOCC3)ncnc21`, the “PIKfyve TDP-43 (active/inactive)” value in assay [1] was “Inactive”. In addition, the “FAB1 TDP-43 (active/inactive)” value in the assay on FAB1 TDP-43 yeast strain is “Inactive”.
For the compound `Cc1cccc(/C=N/Nc2nc(N3CCOCC3)c3nc(-c4ccncc4)n(C)c3n2)c1` [drawing 329], the “PIKfyve TDP-43 (active/inactive)” value in assay [1] was “Active”. Besides, the “FAB1 TDP-43 (active/inactive)” value with FAB1 TDP-43 yeast strain was “Inactive”.
In the case of `c1ccc(N2CCc3c(OCc4cccnc4)nc(N4CCOCC4)nc32)cc1`, in assay [1], the 50% inhibitory concentration (IC50) amounted to 2680 nM.
For `COc1nn(-c2cc(N3CCOCC3)n3nccc3n2)cc1-c1ccccc1` [Compound 77, 4-(5-(3-methoxy-4-phenyl-1H-pyrazol-1-yl)pyrazolo[1,5-a]pyrimidin-7-yl)morpholine], the IC50 is more than 10000 nM in assay [2] and 1000 to 10000 nM in the assay on U2OS cells (class symbols).
On to `Cc1cccc(-c2ccn(-c3cc(N4CCOCC4)n4nc(CCC(=O)N(C)C)cc4n3)n2)c1` [Compound 149, N,N-dimethyl-3-(7-morpholino-5-(3-(m-tolyl)-1H-pyrazol-1-yl)pyrazolo[1,5-a]pyrimidin-2-yl)propanamide], for which the IC50 in the assay with U2OS cells (Homo sapiens, class symbols) fell in the range of 100 to 1000 nM.
Still for that read-out and setting: next, `Cn1ccc(-c2cccc(-c3cc(N4CCOCC4)n4nc(N5CCC(O)CC5)cc4n3)c2)n1` [Compound 152, 1-(5-(3-(1-methyl-1H-pyrazol-3-yl)phenyl)-7-morpholinopyrazolo[1,5-a]pyrimidin-2-yl)piperidin-4-ol]: 1000 to 10000 nM.
In the case of `Cn1ccc(-c2cccc(-c3cc(N4CCOCC4)n4nc(-c5ccncc5)cc4n3)c2)n1` [Compound 142, 4-(5-(3-(1-methyl-1H-pyrazol-3-yl)phenyl)-2-(pyridin-4-yl)pyrazolo[1,5-a]pyrimidin-7-yl)morpholine], the IC50 in assay [2] lay within 10 to 100 nM; with U2OS cells (Homo sapiens, class symbols), 1000 to 10000 nM.
In the case of `Oc1cc(-c2ccccc2)nn1-c1cc(N2CCOCC2)n2nc(-c3ccncc3)cc2n1` [Compound 51, 1-(7-morpholino-2-(pyridin-4-yl)pyrazolo[1,5-a]pyrimidin-5-yl)-3-phenyl-1H-pyrazol-5-ol], the IC50 in assay [2] is less than 10 nM; in the assay with U2OS cells (Homo sapiens, class symbols), 1000 to 10000 nM.
Regarding `Cc1cccc(-c2ccn(-c3cc(N4CCOCC4)n4nc(C(O)CO)cc4n3)n2)c1` (stereo not drawn) [Compound 150, 1-(7-morpholino-5-(3-(m-tolyl)-1H-pyrazol-1-yl)pyrazolo[1,5-a]pyrimidin-2-yl)ethane-1,2-diol], the IC50 in the assay with U2OS cells (Homo sapiens, class symbols) is 1000 to 10000 nM.
`COc1cccc(-c2ccn(-c3cc(N4CCOCC4)n4nc(-c5ccncc5)cc4n3)n2)c1` [Compound 71, 4-(5-(3-(3-methoxyphenyl)-1H-pyrazol-1-yl)-2-(pyridin-4-yl)pyrazolo[1,5-a]pyrimidin-7-yl)morpholine]: the IC50 in assay [2] fell in the range of 10 to 100 nM; with U2OS cells (Homo sapiens, class symbols), 100 to 1000 nM.
Taken in the same sequence, the figures for `Cc1cccc(-c2ccn(-c3cc(N4CCOCC4)n4nc(-c5ccncc5)cc4n3)n2)c1` [Compound 65, 4-(2-(pyridin-4-yl)-5-(3-(m-tolyl)-1H-pyrazol-1-yl)pyrazolo[1,5-a]pyrimidin-7-yl)morpholine] were 10 to 100 nM and 100 to 1000 nM.
